From a melting point compilation (Tetko et al.; mined from patent text by program, amines drawn as free bases though some values may be those of a salt)

Structure (SMILES) | melting point
CCCN1c2ccccc2C(=O)N(CC(=O)O)c2cc(Cc3c[nH]c4ccccc34)ccc21 | 160 to 170 °C
Nn1c(=O)cc2n(C3CC3)c3cc(N4CCNCC4)c(F)cc3n2c1=O | 232 to 234 °C
CC(C)N(C(C)C)C(C)CN1C(=O)C(=O)c2ccccc21 (stereo not given) | 111 to 112 °C
CC(=O)Oc1ccc2c(c1)CCC1C3CCC(=O)C3(C)CC(O)C21O (stereo not given) | 199 to 201 °C
O=C(CN1CCN(c2ccccc2)CC1)c1ccccc1 | 104 to 106 °C
O=c1c2ccc3[nH]ccc3c2ccn1Cc1ccc(F)cc1 | 171 to 173 °C
O=C(Cc1ccccc1)N[C@@H]1C(=O)N2C(C(=O)O)=C(OS(=O)(=O)C(F)(F)F)NC[C@H]12 (racemic) | 100 to 102 °C
COc1cc(Nc2c(C#N)cnc3cc(-c4cccc(NC(C)=O)c4)ccc23)c(Cl)cc1Cl | 262 to 263 °C
C(=C\c1nc(COc2ccc(CCCn3nccn3)cc2)co1)/c1ccccc1 | 103 to 104 °C
Cc1nnc2ccc(-c3cccc(C(F)(F)F)c3)cn12 | 185 to 187 °C
O=C1CCC2=C(CCc3cc(Cl)ccc32)N1 | 228 to 230 °C
CC(C)N1CC(Oc2ccc(-c3cccc(N)n3)c3ccccc23)C1 | 120 to 135 °C
COc1ccccc1COc1ccc(S(=O)(=O)c2ccc(C)nc2Nc2ccc(S(C)(=O)=O)cc2Cl)cc1 | 100 to 102 °C
CC(=O)NCCC(=O)NCCNC(=O)OCc1ccccc1 | 180 to 182 °C
C[Si](C)(C)c1ccc2cc(C(=O)O)n(Cc3cccc(F)c3)c2c1 | 189 to 191 °C
CC(=O)ON=C(N)c1cccc(C(=O)N2CCN(C(=O)[C@@H]3CCCN3S(=O)(=O)c3ccc(Cl)c(COc4cccc5c(C)cc(C)nc45)c3Cl)CC2)c1 | 130 °C
CCCCCCCNC(=O)N(C)c1cccc(-c2cc(F)c(CCC(=O)O)c(F)c2)c1 | 86 °C
COc1ccc2c(-c3ccc(OC)c(C)c3)noc2c1 | 93 to 95 °C
CCn1c2ccccc2c2cc(N(Cc3ccccc3)Cc3ccccc3)ccc21 | 123 to 125 °C
CCc1ccc2c(c1)CC(=O)N2 | 136 to 137 °C
CNC(=O)c1cccc(-c2c(C)cc(C)cc2C)c1 | 143 °C
CC(C)(C)OC(=O)N[C@@H]1C[C@H](C(=O)O)Nc2cc(Cl)cc(Cl)c21 (relative stereo) | 186 to 188 °C
O=C1C2=C(NCCC2)N(c2ccccc2)C2=NCCN12 | 248 to 250 °C
Cc1cccc(Cc2c[nH]cn2)c1 | 127 to 130 °C

Structure (SMILES) | melting point
O=C1CCC(N2Cc3c(OCc4ccc5nccn5c4)cccc3C2=O)C(=O)N1 (stereo not given) | 270 to 272 °C
CSc1cc(=O)c2cc(OC(=O)OC(C)(C)C)c(OC(=O)OC(C)(C)C)cc2s1 | 110 to 111 °C
CC1(C)CC(=O)C2=C(C1)NC1=C(C(=O)CC(C)(C)C1)C2c1c(F)cc(F)cc1F | > 300 °C
CCCCCn1c2c(c3ccc(OC)cc31)CN(S(=O)(=O)c1cccc3c(N(C)C)cccc13)CC2 | 71 to 72 °C
CC(=O)c1cnc(N)c(Cl)c1 | 188 °C
CCOC(=O)CCc1ccc(NC(=O)c2csc(NC(=O)NCc3ccccc3)n2)cc1 | 194 °C
COc1ccc(-n2nnc(-c3ccc(Cl)cc3F)c2N)cc1 | 148 to 150 °C
CS(=O)(=O)c1ccc(-c2sc(-c3ccccc3Cl)nc2-c2ccc(Br)cc2)cc1 | 168 to 184 °C
O=C(O)C(c1ccccc1)N1C(=O)c2ccccc2C1=O (stereo not given) | 175 to 177 °C
Fc1ccc(C(Cl)(Cn2cncn2)C2(n3cncn3)CC2)cc1 (stereo not given) | 81 to 84 °C
CSC(NCCNC(=O)OC(C)(C)C)=C(C#N)C#N | 123 to 125 °C
Cc1nc(-c2c(Cl)cc(C(F)(F)F)cc2Cl)[nH]c1[N+](=O)[O-] | 316 to 318 °C
COCCCNC(=O)Nc1ccc(N(C)C)cc1C(=O)NCC1CCN(C(c2ccccc2)c2ccccc2)CC1 | 191 to 193 °C
CCOC(=O)c1cc2c(nc1C)C(CBr)CCCC2 (stereo not given) | 50 to 51 °C
COc1ccc(-c2cccc(C(=O)NCCO)c2)c2cc(Cc3cccc(C(F)(F)F)c3)oc12 | 111 to 112 °C
CCC(Oc1ccccc1)C(=O)NCCO[N+](=O)[O-] (stereo not given) | 59 to 61 °C
Cc1cc(NS(=O)(=O)c2ccccc2)cnc1CCCC#N | 119 to 120 °C
CNC(=S)Nc1ccc(NNC=O)cc1 | 176 to 178 °C
NN1CCN(C2c3ccccc3C=C(Br)c3ccccc32)CC1 (stereo not given) | 188 to 190 °C
Cc1ccc(S(=O)(=O)NC(=O)Nc2nc(-c3ccccc3)c(-c3ccc(=O)n(C(C)C)n3)s2)cc1 | 172 to 174 °C
CCOC(=O)CCNC(=O)c1n[nH]cc1NC(=O)c1cccc(C)n1 | 228 to 229 °C
CCCCc1ccc(NC=NO)c(C)c1 | 132 to 134 °C
CCOC(=O)OC1=C(c2cc(C)ccc2C)C(=O)NC1CC1CCS(=O)CC1 (stereo not given) | 103 to 106 °C
CS(=O)c1ccc(-c2nc(S)[nH]c2-c2ccc(S(C)=O)cc2)cc1 (stereo not given) | 261 to 262 °C

Structure (SMILES) | melting point
COc1cc(OC)c(-c2cc3ccccc3s2)cc1/C=C/C(=O)c1ccc(C(N)=O)cc1 | 240 to 241 °C
COC(=O)c1cc(-c2ccccc2)c(=O)n2c1-c1sccc1CC2 | 116 °C
CCOC(=O)Cc1cc2c(s1)CCN(C(=O)[C@H](Cc1ccccc1)NC(=O)c1ccc(C(=N)N)cc1)C2 | 173 to 175 °C
CCCN1CCc2c(NC(C)=O)ccc(Br)c2C1 | 144 to 145 °C
N#Cc1ccc(NC(=O)OC2CN3CCC2CC3)cc1 (stereo not given) | 180 to 182 °C
CC(=O)N(c1ccc(C)c(C)c1)[C@H](C)C(=O)O | 156 to 159 °C
O=C(O)Cc1ccc(NC(=O)C=C2CC(C(=O)O)Nc3cc(Cl)cc(Cl)c32)cc1 (racemic) | > 220 °C
CCOC(=O)c1sc(Oc2ccc3c(c2)OCC3)c2c1CCc1cnn(C)c1-2 | 137 to 138 °C
CCCN(CCC)CC(=O)Nc1cccc2c1C(=O)c1c(NC(=O)CN(CCC)CCC)cccc1C2=O | 129 to 130 °C
CS(=O)(=O)c1ccc(-c2nc3cc(C4CCN(C(=O)OCc5ccccc5)CC4)ccc3o2)c(F)c1 | 172 to 175 °C
OCCCCC=CCCc1ccc(OCc2ccccc2)cc1 | 65 to 67 °C
NC(Cc1ccccc1)C(O)C(N)Cc1ccccc1 (stereo not given) | 106 to 107 °C
C#CC(C)Oc1cc(Cl)ccc1-n1c(=O)cc(C(F)(F)F)n(C)c1=O (stereo not given) | 96 to 99 °C
Nc1ccccc1OC1CCCCC1 | 55 to 56 °C
CS(=O)c1ccc(-n2cnc3ccc(-c4nnc(SCc5cccc(C#N)c5)o4)cc32)cc1 (stereo not given) | 152 to 153 °C
N#Cc1c(Nc2cccnc2)nn(Cc2ccccc2)c1N | 191 to 192 °C
CS(=O)(=O)c1cccc(NC(=O)c2cnn3c(Cl)cc(-c4ccc(Cl)cc4)nc23)c1 | 253 to 255 °C
CC(C)c1c(S(=O)(=O)c2ccc(O)cc2)c2ccccn2c1C#N | 232 °C
C#Cc1ccc(C(CC2CCCC2)C(=O)O)cc1 (stereo not given) | 80 to 83 °C
CCOC(=O)c1ncc2[nH]c3ccc(C4CCCCC4)cc3c2c1COC | 254 to 266 °C
Cc1nc(C=Cc2nc3ccccc3c(=O)n2-c2ccccc2Cl)cs1 | 219 to 221 °C
N#Cc1cccc(OCCc2c[nH]cn2)c1 | 189 to 190 °C
